Measured values taken from US8354414B2, “Substituted bicyclic pyrimidines” (Cephalon, Inc, priority 2006, dated 2013).
Structures can show the parent of a compound that is named as a salt.

Legend:
CDK5/GST-p25 = molecular target: T1, CDK5/GST-p25 (Homo sapiens, UniProt Q00535); test: Inhibition of CDK5/GST-p25 kinase activity (ELISA with time-resolved fluorescence readout); type: biochemical
T1 construct: The final construct, encoding for full-length human CDK5; made in house; host or cells: Sf21 insect cells (baculovirus co-infection)
T1 sequence (Q00535 whole entry): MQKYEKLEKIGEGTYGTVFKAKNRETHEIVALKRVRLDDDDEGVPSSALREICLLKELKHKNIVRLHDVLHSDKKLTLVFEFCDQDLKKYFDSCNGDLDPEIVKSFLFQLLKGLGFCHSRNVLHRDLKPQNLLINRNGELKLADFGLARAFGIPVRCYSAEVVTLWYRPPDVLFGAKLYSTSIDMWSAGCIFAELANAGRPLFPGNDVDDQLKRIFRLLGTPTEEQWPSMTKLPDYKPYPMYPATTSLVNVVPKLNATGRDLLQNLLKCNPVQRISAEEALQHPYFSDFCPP
T1 sequence (Q15078 108-307 partner limits assumed): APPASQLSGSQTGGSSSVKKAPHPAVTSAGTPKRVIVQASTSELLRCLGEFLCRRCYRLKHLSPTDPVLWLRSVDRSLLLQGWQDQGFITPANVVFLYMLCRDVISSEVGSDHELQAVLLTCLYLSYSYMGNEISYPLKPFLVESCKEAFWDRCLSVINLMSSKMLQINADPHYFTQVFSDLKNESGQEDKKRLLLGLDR
In short: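 The substrate, GST-Rb(773-928), was immobilised on plates and phosphorylated for 20 min at 37 °C by 2 ng/ml CDK5/GST-p25 in HEPES pH 7.2 with 10 µM ATP and 10 mM MgCl2. Both proteins were human and co-expressed in insect cells. Ser-780 phosphorylation was read by europium time-resolved fluorescence and converted to IC50.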

His6-GSK-3β = molecular target: T2, His6-GSK-3β (Homo sapiens, UniProt P49841); test: Inhibition of His6-GSK-3β kinase activity (ELISA-based format, time-resolved fluorescence readout); type: biochemical; conditions: for IC50: class symbols, read-out: GSK3β IC50
T2 construct: made in house; host or cells: Sf21 insect cells (baculovirus)
T2 sequence (P49841 2-419): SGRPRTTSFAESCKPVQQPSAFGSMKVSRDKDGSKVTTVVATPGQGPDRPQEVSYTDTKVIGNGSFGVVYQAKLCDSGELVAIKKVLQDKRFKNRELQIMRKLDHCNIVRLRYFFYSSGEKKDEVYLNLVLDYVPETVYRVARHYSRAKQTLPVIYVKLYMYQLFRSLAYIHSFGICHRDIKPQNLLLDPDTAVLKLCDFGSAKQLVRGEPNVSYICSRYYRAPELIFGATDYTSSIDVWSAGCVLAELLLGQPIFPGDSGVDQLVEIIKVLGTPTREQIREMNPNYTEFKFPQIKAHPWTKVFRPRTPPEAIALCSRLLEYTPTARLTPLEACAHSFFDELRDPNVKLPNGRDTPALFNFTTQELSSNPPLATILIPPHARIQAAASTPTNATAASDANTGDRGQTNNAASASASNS
In short: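 Plate-bound recombinant GST-Rb substrate was phosphorylated for 30 min at 37° C by baculovirus-expressed His6-GSK-3β (200 ng/ml) at 20 μM ATP, 10 mM MgCl2, 2.5% DMSO. Europium time-resolved fluorescence of anti-phospho-Ser780 Rb signal gave inhibition, fitted to IC50.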

Row | SMILES | IC50 (CDK5/GST-p25; class symbols) [nM] | IC50 (His6-GSK-3β) [nM] | GSK3β % @10 μM (His6-GSK-3β; @10 μM) [% @10 μM] | IC50 (CDK5/GST-p25; numeric bounds) [nM]
1 | N#Cc1ccc2c(c1)C(c1nc(Nc3ccc(F)nc3)nc3c1CCC3)C(=O)N2 (stereo not shown) [Example 351, 3-[2-(6-Fluoro-pyridin-3-ylamino)-6,7-dihydro-5H-cyclopentapyrimidin-4-yl]-2-oxo-2,3-dihydro-1H-indole-5-carbonitrile] | > 10000 | > 10000 |  | 
2 | CCOCCNc1nc2c(c(C3C(=O)Nc4ccc(C#N)cc43)n1)CCC2 (stereo not shown) [Example 344, 3-[2-(2-Ethoxy-ethylamino)-6,7-dihydro-5H-cyclopentapyrimidin-4-yl]-2-oxo-2,3-dihydro-1H-indole-5-carbonitrile] | 300 to 3000 |  | 69 | 
3 | CCN(CC)CCN(C)c1nc(C2C(=O)Nc3ccc(C#N)cc32)c2cn(C3CCCC3)nc2n1 (stereo not shown) [Example 121, 3-{2-cyclopentyl-6-[(2-diethylamino-ethyl)-methyl-amino]-2H-pyrazolo [3,4-d]pyrimidin-4-yl}-2-oxo-2,3-dihydro-1H-indole-5-carbonitrile] | > 10000 | < 300 |  | 
4 | CCOCCNc1nc2c(c(C3C(=O)Nc4ccc(F)cc43)n1)CCC2 (stereo not shown) [Example 319, 3-[2-(2-Ethoxy-ethylamino)-6,7-dihydro-5H-cyclopentapyrimidin-4-yl]-5-fluoro-1,3-dihydro-indol-2-one] | > 10000 | > 10000 |  | 
5 | CCCn1cc2c(C3C(=O)Nc4ccc(Br)cc43)nc(NCCCNC)nc2n1 (stereo not shown) [Example 201, 5-Bromo-3-[6-(3-methylamino-propylamino)-2-propyl-2H-pyrazolo [3,4-d]pyrimidin-4-yl]-1,3-dihydro-indol-2-one hydrochloride] | < 300 | < 300 |  | 
6 | CNCCNc1nc(C2C(=O)Nc3ccc(Br)cc32)c2cn(C)nc2n1 (stereo not shown) [Example 360, 5-Bromo-3-[2-methyl-6-(2-methylamino-ethylamino)-2H-pyrazolo[3,4-d]pyrimidin-4-yl]-1,3-dihydro-indol-2-one hydrochloride salt] | 300 to 3000 | 300 to 3000 |  | 
7 | CCOCCNc1nc2c(c(C3C(=O)Nc4ccc(Br)cc43)n1)CCC2 (stereo not shown) [Example 334, 5-Bromo-3-[2-(2-ethoxy-ethylamino)-6,7-dihydro-5H-cyclopentapyrimidin-4-yl]-1,3-dihydro-indol-2-one] | > 10000 | > 10000 |  | 
8 | C=CCNc1nc(C2C(=O)Nc3ccc(Br)cc32)c2cn(C)nc2n1 (stereo not shown) [Example 301, 3-(6-Allylamino-2-methyl-2H-pyrazolo[3,4-d]pyrimidin-4-yl)-5-bromo-1,3-dihydro-indol-2-one] | < 300 | < 300 |  | 
9 | N#Cc1ccc2c(c1)C(c1nc(NCc3ccc(Cl)nc3)nc3nn(C4CCCC4)cc13)C(=O)N2 (stereo not shown) [Example 171, 3-{6-[(6-Chloro-pyridin-3-ylmethyl)-amino]-2-cyclopentyl-2H-pyrazolo[3,4-d]pyrimidin-4-yl}-2-oxo-2,3-dihydro-1H-indole-5-carbonitrile] | < 300 | < 300 |  | 
10 | CN(C)CCNc1nc(C2C(=O)Nc3ccc(Br)cc32)c2cn(C3CCCC3)nc2n1 (stereo not shown) [Example 370, 5-Bromo-3-[2-cyclopentyl-6-(2-dimethylamino-ethylamino)-2H-pyrazolo [3,4-d]pyrimidin-4-yl]-1,3-dihydro-indol-2-one] |  | < 300 |  | > 3000
11 | N#Cc1ccc2c(c1)C(c1nc(NCCN3CCOCC3)nc3c1CCC3)C(=O)N2 (stereo not shown) [Example 341, 3-[2-(2-Morpholin-4-yl-ethylamino)-6,7-dihydro-5H-cyclopentapyrimidin-4-yl]-2-oxo-2,3-dihydro-1H-indole-5-carbonitrile] | 300 to 3000 | 300 to 3000 |  | 
12 | CCCn1cc2c(C3C(=O)Nc4ccc(Br)cc43)nc(NCCNC)nc2n1 (stereo not shown) [Example 365, 5-Bromo-3-[6-(2-methylamino-ethylamino)-2-propyl-2H-pyrazolo [3,4-d]pyrimidin-4-yl]-1,3-dihydro-indol-2-one hydrochloride salt] | 300 to 3000 | < 300 |  | 
13 | O=C1Nc2ccc(F)cc2C1c1nc(NCCN2CCOCC2)nc2c1CCC2 (stereo not shown) [Example 318, 5-Fluoro-3-[2-(2-morpholin-4-ylethylamino)-6,7-dihydro-5H-cyclopentapyrimidin-4-yl]-1,3-dihydro-indol-2-one] | > 10000 | > 10000 |  | 
14 | N#Cc1ccc2c(c1)C(c1nc(NCc3cccnc3)nc3nn(C4CCCC4)cc13)C(=O)N2 (stereo not shown) [Example 133, 3-{2-cyclopentyl-6-[(pyridin-3-ylmethyl)amino]-2H-pyrazolo[3,4-d]pyrimidin-4-yl}-2-oxo-2,3-dihydro-1H-indole-5-carbonitrile] | < 300 | < 300 |  | 
15 | O=C1Nc2ccc(F)cc2C1c1nc(NCc2ccccn2)nc2c1CCC2 (stereo not shown) [Example 322, 5-Fluoro-3-{2-[(pyridin-2-ylmethyl)-amino]-6,7-dihydro-5H-cyclopentapyrimidin-4-yl}-1,3-dihydro-indol-2-one] |  | > 10000 |  | > 3000
16 | CCCn1cc2c(C3C(=O)Nc4ccc(Br)cc43)nc(N[C@@H]3CCNC3)nc2n1 (stereo partly shown) [Example 363] | 300 to 3000 | 300 to 3000 |  | 
17 | CN(C)CCCNc1nc(C2C(=O)Nc3ccc(C#N)cc32)c2cn(C3CCCC3)nc2n1 (stereo not shown) [Example 138, 3-[2-cyclopentyl-6-(3-dimethylamino-propylamino)-2H-pyrazolo[3,4-d]pyrimidin-4-yl]-2-oxo-2,3-dihydro-1H-indole-5-carbonitrile] | 300 to 3000 | < 300 |  | 
18 | N#Cc1ccc2c(c1)C(c1ncnc3nn(C4CCCCC4)cc13)C(=O)N2 (stereo not shown) [Example 45, 3-(2-Cyclohexyl-2H-pyrazolo [3,4-d]pyrimidin-4-yl)-2-oxo-2,3-dihydro-1H-indole-5-carbonitrile] | < 300 | < 300 |  | 
19 | O=C1Nc2ccc(Br)cc2C1c1nc(NCc2ccc(Cl)nc2)nc2c1CCC2 (stereo not shown) [Example 338, 5-Bromo-3-{2-[(6-chloro-pyridin-3-ylmethyl)-amino]-6,7-dihydro-5H-cyclopentapyrimidin-4-yl}-1,3-dihydro-indol-2-one] |  | > 10000 |  | > 3000
20 | CCCn1cc2c(C3C(=O)Nc4ccc(Br)cc43)nc(NC[C@@H]3CCCN3)nc2n1 (stereo partly drawn) [Example 361, 5-Bromo-3-{2-propyl-6-[((S)-1-pyrrolidin-2-ylmethyl)-amino]-2H-pyrazolo[3,4-d]pyrimidin-4-yl}-1,3-dihydro-indol-2-one] |  | < 300 |  | > 3000
21 | N#Cc1ccc2c(c1)C(c1nc(NCCN3CCSCC3)nc3nn(C4CCCC4)cc13)C(=O)N2 (stereo not shown) [Example 178, 3-[2-Cyclopentyl-6-(2-thiomorpholin-4-yl-ethylamino)-2H-pyrazolo[3,4-d]pyrimidin-4-yl]-2-oxo-2,3-dihydro-1H-indole-5-carbonitrile] | 300 to 3000 | < 300 |  | 
22 | CNCCCNc1nc(C2C(=O)Nc3ccc(Br)cc32)c2cn(C)nc2n1 (stereo not shown) [Example 306, 5-Bromo-3-[2-methyl-6-(3-methylamino-propylamino)-2H-pyrazolo [3,4-d]pyrimidin-4-yl]-1,3-dihydro-indol-2-one] | < 300 | 300 to 3000 |  | 
23 | N#Cc1ccc2c(c1)C(c1nc(N3CCOCC3)nc3nn(C4CCCC4)cc13)C(=O)N2 (stereo not shown) [Example 118, 3-(2-cyclopentyl-6-morpholin-4-yl-2H-pyrazolo[3,4-d]pyrimidin-4-yl)-2-oxo-2,3-dihydro-1H-indole-5-carbonitrile] | 300 to 3000 | < 300 |  | 
